According to ChEMBL document CHEMBL1158837, “Cyclohexadepsipeptides from the insect pathogenic fungus Hirsutella nivea BCC 2594” (J Nat Prod, 2005):
≈ marks a conversion by molar mass, not a printed value. Calls of active or inactive are those of the source. The calls are words filed in the database; no cut-off is given here. Square brackets hold non-standard residues; d marks the D form. Peptide text beside a SMILES is read from it. Hica(2S) = CC(C)C[C@H](O)C(=O)O; NMeL = CN[C@@H](CC(C)C)C(=O)O; Hiv = CC(C)[C@H](O)C(=O)O

What was measured:
[1] = system: Plasmodium falciparum; assay: Antimalarial activity against multidrug-resistant Plasmodium falciparum K1 at 20 ug/ml after 42 hrs as reduced [3H]hypoxanthine uptake; assay type: functional, organism-based
[2] = system: Vero; assay: Cytotoxicity against african green monkey Vero cells at 50 ug/ml by SRB assay; assay type: cell-based; details: chlorocebus sabaeus
[3] = system: Mycobacterium tuberculosis; assay: Antitubercular activity against Mycobacterium tuberculosis H37Ra after 4 days by microplate alamar blue assay; assay type: functional; details: 96 h
[4] = system: Plasmodium falciparum; assay: Antimalarial activity against multidrug-resistant Plasmodium falciparum K1 after 42 hrs by [3H]hypoxanthine uptake; assay type: functional, organism-based

SMILES: CC(C)C[C@@H]1OC(=O)[C@H](C(C)C)OC(=O)[C@H](CO)NC(=O)[C@H]([C@@H](C)O)NC(=O)[C@H](CC(C)C)N(C)C(=O)[C@H](Cc2ccccc2)NC1=O [HIRSUTATIN A] (HELM PEPTIDE1{F.[meL].T.S.[CC(C)[C@H](O[*:1])C(=O)[*:2]].[CC(C)C[C@H](O[*:1])C(=O)[*:2]]}$PEPTIDE1,PEPTIDE1,1:R1-6:R2$$$V2.0)
- Activity [1]: inactive
- Activity [2]: Non-toxic
- MIC [3]: 50 µg/mL (≈ 73.9 µM)

SMILES: COc1ccc(C[C@@H]2NC(=O)[C@H](CC(C)C)OC(=O)[C@H](C(C)C)OC(=O)[C@H](CO)NC(=O)[C@H]([C@@H](C)O)NC(=O)[C@H](CC(C)C)N(C)C2=O)cc1 [HIRSUTATIN B] (cyclo([Hica(2S)]Y(Me)[NMeL]TS[Hiv]))
- IC50 [4]: 5.8 µg/mL (≈ 8.21 µM)
- Activity [2]: Non-toxic
- MIC [3]: 50 µg/mL (≈ 70.7 µM)
